Results from patent publication US20240300902A1, “NOVEL TRANSGLUTAMINASE 2 INHIBITOR AND USE THEREOF” (MD BIOLAB CO., LTD., priority 2021, published 2024).
Where two headings read alike, the source gives them in different places.

Assays:
[1] = molecular target: T1, guinea pig liver-originated transglutaminase 2 (Cavia cutleri, UniProt P08587); assay: In vitro transglutaminase 2 assay (1), [1,4-14C] putrescine incorporation into succinylated casein; type: biochemical; conditions: for mean value (scintillation counts) / fold values relative to the mean value of the control: 2 μM; for mean value (scintillation counts): negative control 129.0, control 4147.5, FIG. 1; for fold values relative to the mean value of the control: standard deviations 0.02 and 0.01; for TGase2 enzyme activity inhibitory effect compared with streptonigrin (KN383, positive control): same dose (2 μM)
T1 construct: 1 mU of guinea pig liver-originated transglutaminase 2 (Sigma, St. Louis, MO, USA); purchased Sigma; host or cells: guinea pig liver
T1 sequence (P08587 1-690): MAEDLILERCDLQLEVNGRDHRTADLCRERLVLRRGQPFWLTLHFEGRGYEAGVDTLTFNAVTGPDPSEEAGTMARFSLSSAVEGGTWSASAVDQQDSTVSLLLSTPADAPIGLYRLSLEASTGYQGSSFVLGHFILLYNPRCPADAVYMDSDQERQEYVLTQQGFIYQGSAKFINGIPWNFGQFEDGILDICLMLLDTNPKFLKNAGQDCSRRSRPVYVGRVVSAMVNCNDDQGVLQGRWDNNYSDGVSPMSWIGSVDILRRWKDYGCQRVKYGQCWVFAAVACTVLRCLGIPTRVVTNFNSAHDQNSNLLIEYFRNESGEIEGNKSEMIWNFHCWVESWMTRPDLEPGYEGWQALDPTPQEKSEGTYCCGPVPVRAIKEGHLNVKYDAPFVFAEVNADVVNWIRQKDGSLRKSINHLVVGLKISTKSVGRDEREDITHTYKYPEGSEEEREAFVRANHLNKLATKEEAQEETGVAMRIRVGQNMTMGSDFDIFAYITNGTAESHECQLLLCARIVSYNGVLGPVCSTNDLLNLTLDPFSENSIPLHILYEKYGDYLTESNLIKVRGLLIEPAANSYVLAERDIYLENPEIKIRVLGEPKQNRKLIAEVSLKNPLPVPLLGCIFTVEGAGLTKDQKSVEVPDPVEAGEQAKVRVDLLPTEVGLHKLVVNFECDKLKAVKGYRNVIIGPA
Method: Incorporation of [1,4-14C] putrescine into succinylated casein was measured to determine the inhibitory effect of each compound on the activity of transglutaminase 2 (TGase 2). 1 mU of guinea pig liver-originated transglutaminase 2 (Sigma, St. Louis, MO, USA) was preincubated with various concentrations of GK13 or GK921 in a 0.1 mL reaction buffer with or without 10 mM CaCl2 for 10 minutes, and 0.4 mL of a substrate solution containing 2% (w/v) succinylated casein and 100 nCi of [1,4-14C] putrescine. After incubation at 37° C. for 1 hour, 4 mL of cold (4° C.) 7.5% (w/v) trichloroacetic acid (TCA) was added to terminate the reaction. The TCA-insoluble precipitate was recovered with a GF/A-grade glass filter (Millipore, Billerica, MA, USA), washed with cold 5% (w/v) TCA, dried, and assessed with a scintillation counter (Beckman Coulter, Brea, CA, USA) to evaluate radiolabel binding. Transglutaminase 2 which was pre-incubated only with a buffer was used as a positive control. The scintillation counts were compared between the example and the positive control, and IC50 values were determined through the logistic linear regression method. The presented data were the mean values of three independent experiments. In this experimental example and the following experimental example, Streptonigrin (described as KN383 in each figure of the drawing), which is an existing transglutaminase 2 inhibitor, was used as a positive control.

[2] = test system: ACHN cancer cell population; assay: Sulforhodamine B (SRB) assay; type: cell-based, Human; conditions: for GI50 / SRB measurement (percentage decrease in the control value of SRB): 48 hours; for GI50: read-out: GI50 (50% growth inhibition); for SRB measurement (percentage decrease in the control value of SRB): concentration of 10^−5 M; for decrease in cell counts: concentrations 10^−6 M or lower
Method: Cells (10,000 cells/well, 100 μL) were incubated in a 96-well microtiter plate. After 24 hours of the incubation, drug (100 μL) was added to each of the wells, and the culture was further incubated at 37° C. for 48 hours. The cells were then fixed in TCA (50 μL per well). The plates were incubated at 4° C. for a minimum of 1 hour or a maximum of 3 hours. The liquid was removed from the plates, and then the plate was washed five times with water and then dried at room temperature (RT) for about 12-24 hours. The fixed cells were stained with 100 μL SRB for 5 minutes at room temperature. After the staining, the plate was washed three times with 1% (w/v) glacial acetic acid and dried at room temperature for about 12-24 hours. Next, the SRB was then dissolved in 10 mM Trizma base, and the absorbance was measured at 515 nm. The effect of the drug was expressed as GI50 (50% growth inhibition).
Specifically, each of the LDD3732, LDD3922, and LDD3959 in concentrations of 10^−9, 10^−8, 10^−7, 10^−6, and 10^−5 M were tested, and the percentage decrease in the control value of SRB was measured using an ACHN cancer cell population.

p53 = assay: P53 rescue test using western blotting; type: cell-based; conditions: low to high concentration, cancer cell lines
Method: Whole cell lysates were prepared using a radioimmunoprecipitation assay (RIPA) buffer (150 mM sodium chloride, 1.0% (w/v) IGEPAL® CA-630 (NP-40), 0.5% (w/v) sodium deoxycholate, 0.1% (w/v) sodium dodecyl sulfate (SDS), a protease inhibitor cocktail, and 50 mM Tris-HCl (pH 8.0) containing a phosphatase inhibitor cocktail. Protein assays were performed through Bradford protein assay (Thermo Scientific, Waltham, MA, USA) to normalize protein expression. The proteins were resolved by SDS-PAGE and transferred to polyvinylidene difluoride (PVDF) membranes (Merck Millipore, Burlington, MA, USA). The membranes were blocked with 5% (w/v) BSA for 1 hour at room temperature and incubated overnight at 4° C. with labeled antibodies. Membranes were washed in TBS-T for 1 hour at room temperature and incubated together with a horseradish peroxidase (HRP)-bound secondary antibody for 1 hour at room temperature. Finally, the membranes were washed in TBS-T for 1 hour at room temperature and developed with enhanced chemiluminescence.

MCF7 cells = assay: Cell viability in breast cancer cell lines according to concentration; type: cell-based; conditions: MCF7, no expression of transglutaminase 2, 72 hours
Method: First breast cancer cells (MDA-MB-453, HCC-1806, HCC-1937: 10,000 cells/well, 100 μl) and second breast cancer cells (MDA-MB-231, MCF-7: 10,000 cells/well, 100 μl) were cultured in 96-well microplates.
After 24 hours, LDD3959 […] of various concentrations were added to each well, using a serum-free cell culture medium, and a reaction was allowed to proceed for 2 hours at 37° C. in the presence of 5% CO2. The culture medium was replaced with a culture medium containing 10% FSB, and a reaction was performed for 72 hours.
The existing culture medium was removed, and a new culture medium containing a water soluble tetrazolium salt was added. After that, the plate underwent a reaction at 37° C. in the presence of 5% CO2 for a duration in the range of 1 hour to 3 hours, and then absorbance was measured at 450 nm.

Row | Structure (SMILES) | mean value (scintillation counts) [1] | fold values relative to the mean value of the control [1] | TGase2 enzyme activity inhibitory effect compared with streptonigrin (KN383, positive control) [1] | GI50 [2] | SRB measurement (percentage decrease in the control value of SRB) [2] | decrease in cell counts [2] | p53 rescue effect (Western blot band of p53) (p53) | GI50 ([2]; Homo sapiens) | effective concentration for apoptosis (MCF7 cells)
1 | O=C1C(Cl)=C(Cl)C(=O)c2[nH]c(-c3ccccc3)nc21 [LDD3732, 5,6-dichloro-2-phenyl-1H-benzo[d]imidazole-4.7-dione] | 477.5 | 0.12 | two-fold or greater stronger TGase2 enzyme activity inhibitory effects than the control | 2.2 µM | −41.43 | no significant decrease in cell counts | dose-dependent p53 rescue effects |  | 
2 | O=C1C(Cl)=C(Cl)C(=O)c2[nH]c(-c3ccc(Br)cc3)nc21 [LDD3922, 2-(4-bromophenyl)-5,6-dichloro-1H-benzo[d]imidazole-4,7-dione] | 352.5 | 0.08 | two-fold or greater stronger TGase2 enzyme activity inhibitory effects than the control |  | 52.25 | no significant decrease in cell counts | dose-dependent p53 rescue effects | 5 µM | 
3 | COC1=C(N)C(=O)c2nc(-c3nc(C(=O)O)c(C)c(-c4ccc(OC)c(OC)c4O)c3N)ccc2C1=O [streptonigrin, Streptonigrin, reference compound] | 1275.5 |  |  |  |  |  |  |  | low
